Test results taken from patent US20050009837A1, “Modulators of lipid metabolism and methods of use” (City of Hope, priority 2003, published 2005).

How the values were obtained:
[1] = test system: CV-1 cells; test: Cytotoxicity in transfected CV-1 cells; settings: T0901317 100 nM; Clotrimazole, S883417, S100250 10 μM; approximately 40 hours
Experimental: (§1) Synthetic compounds were screened in an effort to find more specific LXR inhibitors. CV-1 cells were maintained and transfected using known methods. Forman et al., Cell 81: 687-693, 1995. CV-1 cells were transiently transfected with Gal-hLXRα, the RXR LBD, the UASGx4 TK Luc reporter and CMX-β-gal as an internal control, either in standard or in lipid-stripped serum. After transfection, cells were treated for approximately 40 hours with phenol red-free DMEM-FBS containing the indicated compounds at the following concentrations: T0901317 (100 nM), Clotrimazole (10 μM), S883417(10 μM) and S100250 (10 μM), unless otherwise specified. After exposure to ligand, the cells were harvested and assayed for luciferase and β-galactosidase activity. The luciferase activity was normalized to the internal β-galactosidase control (reporter activity).

[2] = biological target: human PXR (Homo sapiens, UniProt O75469); settings: cited from earlier work
[3] = test system: −241/+12 mSREBP-1c promoter; test: SREBP-1c promoter reporter assay in CV-1 cells; format: cell-based; settings: 10 μM
Experimental: This promoter is directly regulated by LXR via two LXREs present within the first 240 base pairs of the proximal promoter. Thus, we transfected CV-1 cells with the −241/+12 mSREBP-1c promoter along with LXRα or LXRβ. CV-1 cells were transiently transfected with full length LXRα or LXRβ, the SREBP-1c promoter or the SREBP-1c LXREm reporter and CMX-β-gal (as an internal control) in lipid-stripped serum. After transfection, the cells were treated with 10 μM Clotrimazole. The luciferase activity was normalized to the internal β-galactosidase control (reporter activity).

[4] = biological target: T1, LXRβ - coactivator SRC-1 interaction (Homo sapiens, UniProt P55055); test: Mammalian two-hybrid assay Gal-SRC-1 / VP-LXRβ LBD / RXR LBD in CV-1 cells; format: cell-based; settings: 40 hours
T1 construct: expression plasmids for Gal-SRC-1, VP-LXRα LBD or VP-LXRβ LBD, the RXR LBD; expressed in transfected cells; host or cells: CV-1 cells
Text: One characteristic of nuclear receptor antagonists is their ability to displace coactivators bound to ligand-activated receptors. Thus, if Clotrimazole is an antagonist of LXR, it should inhibit the recruitment of coactivators. To test this, a mammalian two-hybrid assay was used. In this assay, CV-1 cells were transfected with Gal-SRC-1, VP-LXRα or VP-LXRβ, the RXR LBD and a reporter construct. In this type of assay, therefore, only a protein-protein interaction between the coactivator SRC-1 and LXR can result in transcriptional activity. The mammalian two-hybrid assay of FIG. 6 was performed by transfecting CV-1 cells with expression plasmids for Gal-SRC-1, VP-LXRα LBD or VP-LXRβ LBD, the RXR LBD and the USAGx4 Tkluc reporter. Cells were treated for 40 hours with Clotrimazole before luciferase and β-galactosidase activities were measured. Gal-SRC in FIG. 6 refers to a fusion between the Gal4 DNA binding domain and the three receptor interaction domains of SRC-1.

[5] = biological target: T2, RXR (Homo sapiens, UniProt P19793); test: Transient transfection assay RXR LBD alone, UASGx4 TK Luc reporter, CV-1 cells; format: cell-based; settings: lipid-stripped serum
T2 construct: transfecting CV-1 cells with either the RXR LBD alone; expressed in transfected cells; host or cells: CV-1 cells
Experimental: as §1
(§2) The ability of these compounds to repress LXRα and LXRβ was compared by transfecting CV-1 cells with either the RXR LBD alone or the RXR LBD together with either Gal-LXRα or Gal-LXRβ.

[6] = biological target: RXR (Homo sapiens, UniProt P19793); test: RXR activity (data not shown); format: cell-based
Target sequence in this assay (P19793 whole entry, the tested form may be a part): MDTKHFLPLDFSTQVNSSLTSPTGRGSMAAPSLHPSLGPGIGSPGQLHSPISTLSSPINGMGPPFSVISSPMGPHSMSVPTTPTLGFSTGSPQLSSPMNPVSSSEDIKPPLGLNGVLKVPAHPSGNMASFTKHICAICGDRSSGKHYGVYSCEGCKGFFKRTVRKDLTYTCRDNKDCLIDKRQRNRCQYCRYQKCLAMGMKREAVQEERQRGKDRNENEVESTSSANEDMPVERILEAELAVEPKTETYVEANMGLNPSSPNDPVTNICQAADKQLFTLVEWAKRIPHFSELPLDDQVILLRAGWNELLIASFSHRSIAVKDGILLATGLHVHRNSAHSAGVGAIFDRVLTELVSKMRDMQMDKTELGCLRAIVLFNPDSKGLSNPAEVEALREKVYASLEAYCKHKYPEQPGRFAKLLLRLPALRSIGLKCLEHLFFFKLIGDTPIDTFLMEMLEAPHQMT

[7] = biological target: T3, LXRβ (Homo sapiens, UniProt P55055); test: Transient transfection assay Gal-LXRβ + RXR LBD, UASGx4 TK Luc reporter, CV-1 cells; format: cell-based
T3 construct: expressed in transfected cells; host or cells: CV-1 cells
T3 sequence (P55055 222-460 limits assumed): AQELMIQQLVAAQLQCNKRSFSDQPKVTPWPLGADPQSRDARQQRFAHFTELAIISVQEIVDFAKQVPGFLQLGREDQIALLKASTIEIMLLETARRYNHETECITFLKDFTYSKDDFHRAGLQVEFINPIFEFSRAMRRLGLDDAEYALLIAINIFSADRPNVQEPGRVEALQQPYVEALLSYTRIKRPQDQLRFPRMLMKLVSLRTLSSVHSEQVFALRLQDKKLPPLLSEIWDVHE
T3 sequence (P19793 227-458 partner limits assumed): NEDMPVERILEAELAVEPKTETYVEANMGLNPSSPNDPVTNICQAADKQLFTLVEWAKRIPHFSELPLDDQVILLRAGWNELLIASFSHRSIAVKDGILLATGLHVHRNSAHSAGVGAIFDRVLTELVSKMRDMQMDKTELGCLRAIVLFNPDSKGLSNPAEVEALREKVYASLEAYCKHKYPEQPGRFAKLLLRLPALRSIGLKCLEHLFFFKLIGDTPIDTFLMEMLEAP
Experimental: as §1, §2
Transfections were performed as described above, with increasing concentrations of Clotrimazole.

[8] = biological target: PPARα (Homo sapiens, UniProt Q07869); test: PPARα activity (data not shown); format: cell-based
Chain of PPARα (Q07869 whole entry, species assumed): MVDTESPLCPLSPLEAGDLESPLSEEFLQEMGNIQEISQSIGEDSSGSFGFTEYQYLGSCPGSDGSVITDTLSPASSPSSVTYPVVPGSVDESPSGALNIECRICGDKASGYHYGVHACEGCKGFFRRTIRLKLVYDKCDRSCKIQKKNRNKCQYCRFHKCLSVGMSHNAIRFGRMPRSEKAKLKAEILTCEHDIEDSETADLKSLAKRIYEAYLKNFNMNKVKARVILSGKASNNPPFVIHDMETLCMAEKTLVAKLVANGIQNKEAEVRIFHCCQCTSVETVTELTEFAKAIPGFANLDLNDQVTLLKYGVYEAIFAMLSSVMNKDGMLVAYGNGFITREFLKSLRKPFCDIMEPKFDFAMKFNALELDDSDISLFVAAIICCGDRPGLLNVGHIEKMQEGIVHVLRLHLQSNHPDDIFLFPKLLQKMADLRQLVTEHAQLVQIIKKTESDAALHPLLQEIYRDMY

Chain of human PXR (O75469 whole entry): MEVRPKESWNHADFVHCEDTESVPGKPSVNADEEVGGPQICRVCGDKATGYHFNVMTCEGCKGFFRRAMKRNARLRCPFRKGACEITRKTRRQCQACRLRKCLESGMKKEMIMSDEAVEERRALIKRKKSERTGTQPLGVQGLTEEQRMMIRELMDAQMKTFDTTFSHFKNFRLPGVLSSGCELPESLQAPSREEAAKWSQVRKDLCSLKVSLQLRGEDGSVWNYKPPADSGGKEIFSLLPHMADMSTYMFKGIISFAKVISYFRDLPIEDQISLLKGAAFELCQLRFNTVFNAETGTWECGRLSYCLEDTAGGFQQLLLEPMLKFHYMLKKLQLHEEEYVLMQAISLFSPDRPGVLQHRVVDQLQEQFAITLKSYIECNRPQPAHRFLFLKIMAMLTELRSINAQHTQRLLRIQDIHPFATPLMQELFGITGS

## Clc1ccccc1C(c1ccccc1)(c1ccccc1)n1ccnc1 [Clotrimazole]
[1]
  cytotoxicity: No cytotoxicity
[2]
  activity on human PXR: agonist
[3]; absence of LXR, lipid-stripped serum
  SREBP-1c promoter activity: repressed
[3]; both LXREs inactivated, absence or presence of LXR
  SREBP-1c LXREm mutant promoter activity: did not repress the promoter activity
[3]; co-transfected LXRα
  LXRα-induced SREBP-1c promoter activity: repressed the LXR-induced activity
[3]; co-transfected LXRβ
  LXRβ-induced SREBP-1c promoter activity: repressed the LXR-induced activity
[4]
  interaction of LXRβ with coactivator SRC-1: inhibited this interaction
[5]
  effect on RXR: no effect
[6]
  effect on RXR activity: no effect
[7]; 10 μM, approximately 40 hours, lipid-stripped serum
  repression of LXRβ activity: powerful antagonist
[7]; dose-response, increasing concentrations, read-out: EC50 for repression of LXRβ constitutive activity
  EC50: ~10 µM
[8]
  effect on PPARα activity: no effect
